Source: patent publication US20110045083A1, “USE LARCH WOOD FOR TREATING INFLAMMATION” (priority 2007, published 2011)
Values joined by “and” are separate entries in the source; they are usually repeats but may differ in a detail not shown here. Identical values can stand only once. “Also recorded” adds a separate entry of the source. Like-named read-outs stand apart in the source and are kept apart here.

Experiments:
COX-2 (purified PGHS-2) = target: T1, COX-2 (purified PGHS-2) (Ovis aries, UniProt P79208); test: COX-2 assay, purified enzyme, PGE2 EIA; format: biochemical, sheep; settings: for inhibition at 50 µM: screening concentration 50 μM
T1 construct: purified PGHS-2 (COX-2) from sheep placental cotyledones; purchased Cayman Chemical Company, Ann Arbor, Mich., USA; host or cells: sheep placental cotyledons (tissue-purified)
T1 sequence (P79208 17-603): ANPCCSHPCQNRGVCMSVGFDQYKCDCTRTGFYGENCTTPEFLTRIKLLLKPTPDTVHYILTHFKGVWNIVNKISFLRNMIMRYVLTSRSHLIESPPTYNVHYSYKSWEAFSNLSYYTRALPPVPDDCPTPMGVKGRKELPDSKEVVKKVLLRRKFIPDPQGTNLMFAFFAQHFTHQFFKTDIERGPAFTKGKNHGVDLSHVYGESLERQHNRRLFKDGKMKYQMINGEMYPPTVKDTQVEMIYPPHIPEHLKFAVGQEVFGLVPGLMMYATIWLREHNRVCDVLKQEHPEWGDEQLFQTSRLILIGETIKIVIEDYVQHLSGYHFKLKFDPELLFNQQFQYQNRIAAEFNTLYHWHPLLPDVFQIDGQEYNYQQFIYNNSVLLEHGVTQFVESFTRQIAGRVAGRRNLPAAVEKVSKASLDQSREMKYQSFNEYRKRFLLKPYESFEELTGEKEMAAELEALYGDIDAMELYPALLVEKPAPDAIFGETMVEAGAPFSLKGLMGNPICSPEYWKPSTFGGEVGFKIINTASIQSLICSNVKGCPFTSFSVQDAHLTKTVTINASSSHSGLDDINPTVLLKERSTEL
Description: (§1) Principle: The purified enzymes COX-1 and COX-2 are incubated with a defined concentration of test sample and arachidonic acid. After stopping the enzymatic reaction by addition of formic acid and dilution, the produced PGE2 is quantified by means of a PGE2 EIA kit.
(§2) Sample preparation: The test samples (extracts and pure compounds) are dissolved in ethanol. Extracts are tested in concentrations of 20 μg/ml for screening. Pure compounds are tested in concentrations of 50 μM for screening.
(§3) Incubation procedure: The assays are performed in a microtiter scale with purified PGHS-1 (COX-1) from ram seminal vesicles and purified PGHS-2 (COX-2) from sheep placental cotyledones (both: Cayman Chemical Company, Ann Arbor, Mich., USA). The incubation mixture consists of 180 μl 0.1 M TRIS/HCl-buffer (pH 8.0) (Roth, Karlsruhe, Germany), 5 μM hematin, (porcine, ICN, Aurora, Ohio, USA), 18 mM epinephrine hydrogen tartrate (Fluka, Buchs, Switzerland), 0.2 U of enzyme preparation and 50 μM Na2EDTA (only COX-2 assay, Titriplex III, Merck, Darmstadt, Germany). 10 μl of each test solution are added and the mixture is preincubated for 5 min at room temperature. The reaction is started by adding 10 μl of 5 μM arachidonic acid (Cayman Chemical Company) in EtOH p.a. and the reaction mixture is incubated at 37° C. The reaction is terminated after 20 min by addition of 10 μl of 10% formic acid.
(§4) PGE2 EIA: The concentration of PGE2, the main arachidonic acid metabolite in this reaction, is determined by a competitive PGE2 EIA kit (Assay Designs Inc., Ann Arbor, Mich., USA). All samples are diluted in EIA buffer. The EIA is incubated for 2 hours at room temperature on an orbital shaker. After a washing step, 200 μl of substrate solution are added to each well, and the EIA is incubated for 1 hour at room temperature. After addition of 50 μl stop solution, the EIA is evaluated photometrically by an ELISA microplate reader.
(§5) Inhibition of COX refers to reduction of PGE2 formation in comparison to a blank run without inhibitor. Inhibition values are means of at least 2 experiments and each sample is tested in duplicate. […] IC50 values of active samples were determined by testing at least 3 concentrations in 3 different experiments, in duplicate each. IC50 was calculated by logarithmic regression after graphical representation.

COX-1 (purified PGHS-1) = target: T2, COX-1 (purified PGHS-1) (Ovis aries, UniProt P05979); test: COX-1 assay, purified enzyme, PGE2 EIA; format: biochemical, ram; settings: for inhibition at 50 µM: screening concentration 50 μM
T2 construct: purified PGHS-1 (COX-1) from ram seminal vesicles; purchased Cayman Chemical Company, Ann Arbor, Mich., USA; host or cells: ram seminal vesicles (tissue-purified)
T2 sequence (P05979 25-600): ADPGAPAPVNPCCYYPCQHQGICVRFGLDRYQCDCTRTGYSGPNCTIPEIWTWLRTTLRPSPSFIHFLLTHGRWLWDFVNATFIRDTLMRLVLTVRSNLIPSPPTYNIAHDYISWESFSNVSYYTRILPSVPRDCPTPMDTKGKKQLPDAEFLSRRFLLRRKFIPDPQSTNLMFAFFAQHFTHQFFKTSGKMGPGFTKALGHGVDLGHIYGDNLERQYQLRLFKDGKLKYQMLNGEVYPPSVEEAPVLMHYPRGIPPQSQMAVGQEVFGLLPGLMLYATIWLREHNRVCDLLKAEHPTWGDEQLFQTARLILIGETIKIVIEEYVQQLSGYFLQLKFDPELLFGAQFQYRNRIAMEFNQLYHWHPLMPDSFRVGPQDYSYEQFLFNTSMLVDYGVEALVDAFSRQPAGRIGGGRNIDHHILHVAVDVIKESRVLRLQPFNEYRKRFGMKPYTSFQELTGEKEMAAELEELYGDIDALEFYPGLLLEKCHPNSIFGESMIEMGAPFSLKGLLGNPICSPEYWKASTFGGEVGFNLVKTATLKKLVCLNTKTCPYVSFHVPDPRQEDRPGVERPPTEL
Description: as §1, §2, §3, §4, §5

| SMILES | IC50 COX-2 (COX-2 (purified PGHS-2)) | IC50 COX-2 (COX-2 (purified PGHS-2); listed as dehydroabietinol) | inhibition at 50 µM (COX-2 (purified PGHS-2)) [%] | IC50 COX-1 (COX-1 (purified PGHS-1)) | IC50 COX-1 (COX-1 (purified PGHS-1); listed as dehydroabietinol) | inhibition at 50 µM (COX-1 (purified PGHS-1)) [%] | IC50 (COX-2 (purified PGHS-2); IC50 COX-2) [µM] | IC50 COX-1 (COX-1 (purified PGHS-1); listed as palustric acid) | IC50 (COX-2 (purified PGHS-2); read-out: IC50 COX-2) | IC50 COX-2 (COX-2 (purified PGHS-2); listed as larixol) | IC50 COX-1 (COX-1 (purified PGHS-1); listed as larixol) |
| --- | --- | --- | --- | --- | --- | --- | --- | --- | --- | --- | --- |
| CC(C)c1ccc2c(c1)CCC1C(C)(CO)CCCC21C (stereo not drawn) [Dehydroabietinol] | Inactive | inactive | 7.7 ± 8 | Inactive | inactive | -1.6 ± 4.6 | – | – | – | – | – |
| CC(C)c1ccc2c(c1)CCC1C(C)(C(=O)O)CCCC21C (stereo not drawn) [Dehydroabietic acid] | Inactive | – | -6 ± 9 | Inactive | – | 2.9 ± 7.8 | – | – | – | – | – |
| CC(C)C1=CC2=C(CC1)C1(C)CCCC(C)(C(=O)O)C1CC2 (stereo not drawn) [Palustric acid] | – | – | 49.5 ± 3.5 | Inactive | – | 13.5 ± 4.7 | 57.9 | without inhibiting | – | – | – |
| C=C[C@@]1(C)CC[C@H]2C(=CC[C@@H]3[C@]2(C)CCC[C@@]3(C)C(=O)O)C1 [Isopimaric acid] | without inhibiting; also recorded: Inactive | – | 3.5 ± 6.2 | without inhibiting; also recorded: Inactive | – | 15.7 ± 7.1 | – | – | – | – | – |
| C=CC(C)(O)CCC1C(=C)CC(OC(C)=O)C2C(C)(C)CCCC12C (stereo not drawn) [Larixyl acetate] | devoid of COX-2inhibitory activity | – | 38.5 ± 5.9 | Inactive | – | 0.2 ± 5.9 | – | – | 95 µM and 95.1 µM | – | – |
| C=CC(C)(O)CCC1C(=C)CC(O)C2C(C)(C)CCCC12C (stereo not drawn) [Larixol] | Inactive | – | 8.7 ± 3.8 | Inactive | – | 2.1 ± 4.7 | – | – | – | inactive | inactive |
